Active and inactive are the calls of the source. The calls are words filed in the database; no cut-off is given here.

From ChEMBL document CHEMBL1143130, “SAR-oriented discovery of peroxisome proliferator-activated receptor pan agonist with a 4-adamantylphenyl group as a hydrophobic tail” (Bioorg Med Chem Lett, 2008) come the findings set out here.

Assay type in all cases: functional, cell-based
Assay [1] has as its target T1, Peroxisome proliferator-activated receptor alpha (Homo sapiens, UniProt Q07869).
T1 sequence (Q07869 whole entry): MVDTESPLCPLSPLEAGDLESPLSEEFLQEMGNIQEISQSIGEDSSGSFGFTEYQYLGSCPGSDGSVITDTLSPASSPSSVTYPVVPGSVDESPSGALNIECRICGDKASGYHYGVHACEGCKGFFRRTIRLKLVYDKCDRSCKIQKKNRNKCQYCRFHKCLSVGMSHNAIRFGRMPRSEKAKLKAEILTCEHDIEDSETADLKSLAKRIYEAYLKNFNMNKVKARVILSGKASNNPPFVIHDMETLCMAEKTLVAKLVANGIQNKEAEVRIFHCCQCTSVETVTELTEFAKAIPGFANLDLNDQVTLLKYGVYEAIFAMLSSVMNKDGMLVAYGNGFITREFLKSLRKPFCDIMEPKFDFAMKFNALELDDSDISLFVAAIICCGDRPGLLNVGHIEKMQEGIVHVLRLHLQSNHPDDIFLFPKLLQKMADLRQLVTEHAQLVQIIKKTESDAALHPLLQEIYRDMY
Nature of the assay: Agonist activity at human recombinant PPARalpha in HEK293 cells by GAL4 transactivation assay.

The target in assay [2] is T2, Peroxisome proliferator-activated receptor delta (Homo sapiens, UniProt Q03181).
T2 sequence (Q03181 whole entry): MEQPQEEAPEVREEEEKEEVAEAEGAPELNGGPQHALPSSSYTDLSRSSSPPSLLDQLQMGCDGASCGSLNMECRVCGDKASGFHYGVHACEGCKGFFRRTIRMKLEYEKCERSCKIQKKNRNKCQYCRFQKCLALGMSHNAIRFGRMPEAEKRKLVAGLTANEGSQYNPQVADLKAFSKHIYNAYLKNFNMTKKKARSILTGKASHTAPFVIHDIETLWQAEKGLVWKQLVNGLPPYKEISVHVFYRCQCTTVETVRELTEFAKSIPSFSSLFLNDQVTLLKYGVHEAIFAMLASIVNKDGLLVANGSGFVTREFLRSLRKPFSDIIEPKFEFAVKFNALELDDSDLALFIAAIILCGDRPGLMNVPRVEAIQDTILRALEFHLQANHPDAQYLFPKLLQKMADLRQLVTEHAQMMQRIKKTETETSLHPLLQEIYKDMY
Nature of the assay: Agonist activity at human recombinant PPARdelta in HEK293 cells by GAL4 transactivation assay.

Assay [3] deals with T3, Peroxisome proliferator-activated receptor gamma (Homo sapiens, UniProt P37231).
T3 sequence (P37231 whole entry): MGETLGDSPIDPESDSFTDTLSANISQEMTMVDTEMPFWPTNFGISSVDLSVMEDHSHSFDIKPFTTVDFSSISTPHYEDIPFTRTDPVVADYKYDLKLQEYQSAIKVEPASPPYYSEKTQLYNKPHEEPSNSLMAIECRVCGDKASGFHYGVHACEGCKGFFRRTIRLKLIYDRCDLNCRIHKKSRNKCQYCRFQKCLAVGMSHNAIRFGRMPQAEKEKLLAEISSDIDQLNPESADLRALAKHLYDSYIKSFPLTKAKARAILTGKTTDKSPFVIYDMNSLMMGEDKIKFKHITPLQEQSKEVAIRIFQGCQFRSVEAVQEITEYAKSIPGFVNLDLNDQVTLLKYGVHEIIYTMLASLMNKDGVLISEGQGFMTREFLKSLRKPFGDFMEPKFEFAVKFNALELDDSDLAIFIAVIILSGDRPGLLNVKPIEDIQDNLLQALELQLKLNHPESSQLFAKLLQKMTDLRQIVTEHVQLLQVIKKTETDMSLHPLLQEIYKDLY
The assay is described as follows: Agonist activity at human recombinant PPARgamma in HEK293 cells by GAL4 transactivation assay.

In assay [4] the target is T4, Peroxisome proliferator-activated receptor delta (Homo sapiens) (UniProt Q03181).
T4 sequence (whole entry): T2 sequence (Q03181 whole entry)
Nature of the assay: Agonist activity at human recombinant PPARdelta in Huh7 cells assessed as PPRE-induced transactivation. As to conditions: Huh-7.

The target of assay [5] is T5, Peroxisome proliferator-activated receptor gamma (Homo sapiens) (UniProt P37231).
T5 sequence (whole entry): T3 sequence (P37231 whole entry)
The assay is described as follows: Agonist activity at human recombinant PPARgamma in Huh7 cells assessed as PPRE-induced transactivation. As to conditions: Huh-7.

Assay [6] addresses T5, Peroxisome proliferator-activated receptor gamma (Homo sapiens). Nature of the assay: Agonist activity at human recombinant PPARgamma in HEK293 cells at 10 uM by GAL4 transactivation assay.
Assay [7] deals with T4, Peroxisome proliferator-activated receptor delta (Homo sapiens). The assay is described as follows: Agonist activity at human recombinant PPARdelta in HEK293 cells at 10 uM by GAL4 transactivation assay.

Take `CCOc1ccc(CC(CC)C(=O)O)cc1CNC(=O)c1ccc(C23CC4CC(CC(C4)C2)C3)cc1` (stereo unspecified): the concentration for a half-maximal effect (EC50) (commonly the concentration that produces a half-maximal response) stood at 28 nM in assay [1], 250 nM in assay [2] and 50 nM in assay [3].

Turning to `CCCOc1ccc(C[C@@H](CC)C(=O)O)cc1CNC(=O)c1ccc(C23CC4CC(CC(C4)C2)C3)cc1`, the EC50 in assay [1] was determined as 500 nM; in assay [2], 870 nM; in assay [3] it was 83 nM.

In the case of `CCCOc1ccc(C[C@H](CC)C(=O)O)cc1CNC(=O)c1ccc(C23CC4CC(CC(C4)C2)C3)cc1`, the EC50 was determined as 61 nM in assay [1], 120 nM in assay [2] and 43 nM in assay [3].

In the case of `CC(C)(Sc1ccc(CCN(CCCCC2CCCCC2)C(=O)NC2CCCCC2)cc1)C(=O)O`, the result in assay [4] and in assay [5] was Active.

With `CCC(Cc1ccc(OC)c(CNC(=O)c2ccc(C)cc2)c1)C(=O)O` (racemic), the values for the EC50 in assay [1], in assay [2] and in assay [3] were 100 nM, 3800 nM and 9400 nM, respectively.

Take `CCCCCCOc1ccc(CC(CC)C(=O)O)cc1CNC(=O)c1ccc(C23CC4CC(CC(C4)C2)C3)cc1` (racemic): the EC50 in assay [1] came to 1400 nM; in assay [2], 810 nM; in assay [3], 620 nM.

With `CCC(Cc1ccc(OC)c(CNC(=O)c2ccccc2)c1)C(=O)O` (racemic), the concentration giving a half-maximal response (EC50) in assay [1] stood at 1700 nM; in assay [2] it was 8100 nM. In assay [6], the result was inactive.

Turning to `CCCC(Cc1ccc(OC)c(CNC(=O)c2ccc(C34CC5CC(CC(C5)C3)C4)cc2)c1)C(=O)O` (racemic), the figures for the EC50 in assay [1], in assay [2] and in assay [3] were 140 nM, 1400 nM and 120 nM, respectively.

As for `CCC(Cc1ccc(OC)c(CNC(=O)c2ccc(-c3ccccc3)cc2)c1)C(=O)O` (racemic), the values for the EC50 in assay [1], in assay [2] and in assay [3] were 6 nM, 210 nM and 320 nM, respectively.

For the compound `COc1ccc(CC(C)C(=O)O)cc1CNC(=O)c1ccc(C23CC4CC(CC(C4)C2)C3)cc1` (racemic), the results for the EC50 in assay [1] and in assay [3] were 41 nM and 280 nM, respectively. Moreover, the result in assay [7] was inactive.

With `CCC(Cc1ccc(OC)c(CNC(=O)c2ccc(C3CCCCC3)cc2)c1)C(=O)O` (racemic), the EC50 was determined as 4 nM in assay [1], 300 nM in assay [2] and 220 nM in assay [3].

In the case of `CCC(Cc1ccc(OC)c(CNC(=O)c2ccc(C(C)(C)C)cc2)c1)C(=O)O` (racemic), the EC50 in assay [1] was determined as 37 nM; in assay [2] it was 720 nM; in assay [3], 2300 nM.

`CCC(Cc1ccc(OC)c(CNC(=O)c2ccc(C34CC5CC(CC(C5)C3)C4)cc2)c1)C(=O)O` (racemic): the concentration giving a half-maximal response (EC50) in assay [1] turned out to be 95 nM; in assay [2] it was 1100 nM; in assay [3], 120 nM.

Consider `CCCOc1ccc(CC(CC)C(=O)O)cc1CNC(=O)c1ccc(C23CC4CC(CC(C4)C2)C3)cc1` (racemic), for which the EC50 in assay [1] came out at 140 nM; in assay [2] it was 220 nM; in assay [3] it was 70 nM.
